From patent US20230014907A1, “INHIBITORS OF APOL1 AND METHODS OF USING SAME” (Vertex Pharmaceuticals Incorporated, priority 2020, published 2023) come the findings set out here.

One experiment deals with T1, G1 APOL1 (Homo sapiens, UniProt O14791, I384M/S342G).
T1 construct: expressed in transfected cells
T1 sequence (O14791 28-398 S342G/I384M): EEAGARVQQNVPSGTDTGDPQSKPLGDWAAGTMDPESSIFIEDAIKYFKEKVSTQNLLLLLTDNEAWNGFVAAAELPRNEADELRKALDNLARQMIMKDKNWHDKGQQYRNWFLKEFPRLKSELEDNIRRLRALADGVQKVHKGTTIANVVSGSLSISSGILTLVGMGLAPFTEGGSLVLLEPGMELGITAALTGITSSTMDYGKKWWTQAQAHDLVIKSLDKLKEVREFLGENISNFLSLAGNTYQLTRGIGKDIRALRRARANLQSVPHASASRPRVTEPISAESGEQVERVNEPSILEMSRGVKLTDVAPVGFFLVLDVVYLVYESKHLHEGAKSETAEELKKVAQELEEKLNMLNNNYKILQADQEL
In words: Acute APOL1 Thallium Assay with Inducible Stable Clones of HEK 293 Cells. Format: cell-based. Conditions: HEK 293 inducible stable clones, G1 APOL1; read-out: Thallium Assay (IC50). In a few lines:
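Pore activity was read as the fluorescence increase from Tl+ entering cells loaded with an AM-ester thallium indicator dye. The cells were tetracycline-inducible HEK293 T-Rex expressing G1 APOL1 (clone DC3.25), induced when plated at 26000 per well and incubated at 37° C.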

A further experiment has as its target T2, APOL1 G1 Protein (Homo sapiens, UniProt O14791, I384M/S342G).
T2 sequence (O14791 28-398 S342G/I384M): T1 sequence (O14791 28-398 S342G/I384M)
As to the kind of experiment: Trypanosoma brucei brucei Lysis Assay Using APOL1 Recombinant Protein (AlamarBlue viability). Type of experiment: cell-based. The following applies: read-out: Trypanosomal Assay (IC50). From the text:
Trypanosoma brucei brucei is a blood stream parasite to which human, gorillas and baboon are immune due to the presence of the APOL1 protein in their HDL particles. The protein is uptaken by the parasite via the TbHpHb receptor located in its flagellar pocket and is bonded by the Hpr protein contained in the HDL particles which triggers the receptor endocytosis by the parasite.
Following endocytosis, the formed vesicle containing the HDL particle matures from early to late endosome, and subsequently to lysosome. The concomitant pH change in the lumen of the vesicle triggers the insertion of the APOL1 protein into the membrane of the late endosome/lysosome and hereby triggers lysosomal membrane permeabilization and as a further downstream event, trypanosome lysis. Trypanosoma brucei brucei is sensitive to lysis by all three APOL1 variants (G0, G1, and G2).
The Trypanosoma brucei brucei lysis assay is a lysis assay of the parasite using recombinant APOL1 protein variant followed by a fluorescent detection method of viability by the addition of AlamarBlue reagent to the assay well, a general metabolic redox indicator (AlamarBlue assay).
Briefly, the AlamarBlue active compound, the resazurin, a blue, water soluble, non-toxic and cell permeable molecule, which can be followed by absorbance, is reduced by various metabolic pathways into resorufin, a red compound which can be followed by either absorbance or fluorescence. The assay allows the calculation of the percent viability (percent of living Trypanosomes remaining in each well) at the end of a lysis relative to the untreated condition by interpolation of fluorescent values (FLU) on a standard curve with a known amount of seeded trypanosome/well.
Trypanosoma brucei brucei (ATCC, Cat. No. PRA-382) • Lister 427 VSG 221 bloodstream form.
Thaw/Expansion Media (ATCC Medium 2834 Modified HMI-9 Medium)
Assay Media (No Phenol Red/No FBS): Make on Day of Use
Hypoxanthine Stock (100×)-9 (10×)
Equipment • E1-Clip Tip pipette 12 channel adjustable 2-125 μL, Cat. No. 4672070BT • ThermoFisher MultiDrop 384, Cat. No. 5840300 • Multidrop • Agilent Bravo, Cat. No. G5409A • Bravo • SpectraMax M5
Trypanosoma brucei brucei Culture
Step 2, Day 4 • Centrifuge at 800×g for 5 minutes at room temperature. • Resuspend in 1 mL media. • Make a 1:25 fold dilution (10 μL/240 μL media). • Count on a hemocytometer (after adding parasites). • Let sit for 1-2 minutes for the parasites to settle. • Count should be approximately 100 viable motile parasites/16 grid or approximately 25×10^6 parasites/flask. • Passage the parasites by adding 1×10^6 parasites/T75 flask in 20 mL media. • Passage the parasites by adding 2.33×10^6 parasites/T175 flask in 46.6 mL media. • For every T75 flask should make enough for approximately 1.5×384 well assay plates. • For every T175 flask should make enough for approximately 3.8×384 well assay plates.
Step 3, Day 6 • Centrifuge at 800×g for 5 minutes. • Resuspend in 3 mL assay media (No phenol red, no FBS) per 75 starting flask. • Resuspend in 7 mL assay media (No phenol red, no FBS) per 175 flask • Make a 1:25 fold dilution. • Count by hemocytometer. • Every T75 flask set up should have approximately 75×10^6 parasites/flask (verify doubling time=8.7 hours±1 hour). • Every T175 flask set up should have approximately 175×10^6 parasites/flask (verify doubling time=8.7 hours±1 hour). • Require 46×10^6 parasites per 384 well plate (at 120,000 parasites per well). […]
(In general: The colour change of resazurin is a common sign of viable cells or microbes.)

The IC50 is the concentration that gives 50% inhibition.

Where only a bound is given, the exact number is not on record here.

Regarding `O=C(CCc1c(-c2ccc(F)cc2)[nH]c2ccc(F)cc12)N[C@@H](CO)C(F)(F)F` [Compound 1, 3-[5-fluoro-2-(4-fluorophenyl)-1H-indol-3-yl]-N-[(1S)-2,2,2-trifluoro-1-(hydroxymethyl)ethyl]propanamide], the IC50 at G1 APOL1 and at APOL1 G1 Protein was below 250 nM throughout.

`Cc1cccc(CNC(=O)CCc2c(-c3ccc(F)cc3)[nH]c3c(F)cc(F)cc23)n1` [Compound 183]: the IC50 on G1 APOL1 and on APOL1 G1 Protein was above 1000 nM in each case.

Take `O=C(CCc1c(-c2ccc(F)cc2)[nH]c2c(F)cc(F)cc12)NC1(C(F)(F)F)CCC1` [Compound 161]: the IC50 at G1 APOL1 and on APOL1 G1 Protein was above 1000 nM each time.

For `O=C(CCc1c(-c2ccc(F)cc2)[nH]c2c(F)cc(F)cc12)Nc1nc(C(F)(F)F)co1` [Compound 171], the IC50 on G1 APOL1 and on APOL1 G1 Protein was above 1000 nM each time.

As to `OCCc1c(-c2ccc(F)cc2)[nH]c2c(F)cc(F)cc12` [Compound 433, 2-[5,7-difluoro-2-(4-fluorophenyl)-1H-indol-3-yl]ethanol], the IC50 at G1 APOL1 and on APOL1 G1 Protein was below 250 nM in each case.

As to `O=C(CCc1c(-c2ccc(F)cc2)[nH]c2c(F)cc(F)cc12)N[C@H]1CC[C@@H](O)C1` [Compound 179], the IC50 on G1 APOL1 and at APOL1 G1 Protein was above 1000 nM in each case.

Take `O=C(CCc1c(-c2ccc(F)cc2)[nH]c2c(F)cc(F)cc12)N1CCC[C@@H]1CO` [Compound 117]: the IC50 is above 1000 nM on G1 APOL1 and 250 to 1000 nM on APOL1 G1 Protein.

Regarding `C[C@H](O)[C@H](CO)NC(=O)CCc1c(-c2ccc(F)cc2)[nH]c2ccc(F)cc12` [Compound 28], the IC50 on G1 APOL1 was 250 to 1000 nM; on APOL1 G1 Protein, above 1000 nM.

Consider `CN(CCO)C(=O)CCc1c(-c2ccc(F)cc2)[nH]c2c(F)cc(F)cc12` [Compound 143], for which the concentration for half-maximal inhibition (IC50) at G1 APOL1 and on APOL1 G1 Protein was above 1000 nM in each case.

Regarding `O=C(CCc1c(-c2ccc(F)cc2)[nH]c2c(F)cc(F)cc12)NCc1ncc[nH]1` [Compound 134], the IC50 on G1 APOL1 and at APOL1 G1 Protein was above 1000 nM in each case.

With `CC(=O)NCCSc1c(-c2ccc(F)cc2)[nH]c2ccccc12` [Compound 510, N-[2-[[2-(4-fluorophenyl)-1H-indol-3-yl]sulfanyl]ethyl]acetamide], the IC50 at G1 APOL1 and on APOL1 G1 Protein was 250 to 1000 nM throughout.

On to `COCC(C)NC(=O)CCc1c(-c2ccc(F)cc2)[nH]c2ccc(F)cc12` (racemic) [Compound 30], for which the IC50 on G1 APOL1 and on APOL1 G1 Protein was 250 to 1000 nM each time.

For the molecule `N#CC(CO)NC(=O)CCc1c(-c2ccc(F)cc2)[nH]c2c(F)cc(F)cc12` (stereo not shown) [Compound 106], the IC50 at G1 APOL1 was below 250 nM; at APOL1 G1 Protein, 250 to 1000 nM.

As for `O=C(CCc1c(-c2ccc(F)cc2)[nH]c2ccc(F)cc12)NCC1(O)CC1` [Compound 82], the IC50 at G1 APOL1 and on APOL1 G1 Protein was above 1000 nM in each case.

With `O=C(CCc1c(-c2ccc(F)cc2)[nH]c2ccc(F)cc12)NC(CO)CO` [Compound 22], the IC50 at G1 APOL1 and on APOL1 G1 Protein was 250 to 1000 nM throughout.

On to `O=C(CCc1c(-c2ccc(F)cc2)[nH]c2ccc(F)cc12)N[C@H]1CC[C@H]1O` [Compound 14], for which the IC50 at G1 APOL1 and on APOL1 G1 Protein was 250 to 1000 nM throughout.

As for `O=C(CCc1c(-c2ccc(F)cc2)[nH]c2c(F)cc(F)cc12)Nc1ccon1` [Compound 160], the IC50 on G1 APOL1 and at APOL1 G1 Protein was above 1000 nM throughout.

In the case of `O=C(CCc1c(-c2ccc(F)cc2)[nH]c2c(F)ccc(F)c12)N[C@H]1CCOC1=O` [Compound 233, 3-[4,7-difluoro-2-(4-fluorophenyl)-1H-indol-3-yl]-N-[(3S)-2-oxotetrahydrofuran-3-yl]propanamide], the IC50 on G1 APOL1 was 250 to 1000 nM; on APOL1 G1 Protein, above 1000 nM.

Turning to `CC(CO)NC(=O)CCc1c(-c2ccc(F)cc2)[nH]c2ccc(F)cc12` (racemic) [Compound 9], the IC50 at G1 APOL1 and on APOL1 G1 Protein was below 250 nM in each case.

For `Cc1cnc(NC(=O)CCc2c(-c3ccc(F)cc3)[nH]c3c(F)cc(F)cc23)s1` [Compound 178], the IC50 at G1 APOL1 and at APOL1 G1 Protein was above 1000 nM in each case.

`CC(=O)OCC(CO)NC(=O)CCc1c(-c2ccc(F)cc2)[nH]c2c(F)cc(F)cc12` (stereo not shown) [Compound 141]: the IC50 on G1 APOL1 and at APOL1 G1 Protein was 250 to 1000 nM in each case.

With `O=C(CCc1c(-c2ccc(F)cc2)[nH]c2c(F)cc(F)cc12)NC(c1ccco1)C(F)(F)F` (stereo not shown) [Compound 157], the IC50 on G1 APOL1 and on APOL1 G1 Protein was above 1000 nM each time.

On to `CC(C)(C)OC(=O)NC1CCN(C(=O)CCc2c(-c3ccc(F)cc3)[nH]c3ccc(F)cc23)C1` (stereo not shown) [Compound 34], for which the IC50 at G1 APOL1 and on APOL1 G1 Protein was above 1000 nM throughout.

`O=C(CCc1c(-c2ccc(F)cc2)[nH]c2c(F)cc(F)cc12)Nc1cnoc1` [Compound 146]: the IC50 on G1 APOL1 and on APOL1 G1 Protein was above 1000 nM in each case.

Regarding `N[C@H]1C[C@@H](NC(=O)CCc2c(-c3ccc(F)cc3)[nH]c3ccc(F)cc23)C1` [Compound 10], the IC50 on G1 APOL1 and at APOL1 G1 Protein was above 1000 nM each time.

Take `NC(=O)[C@H](CO)NC(=O)CCc1c(-c2ccc(F)cc2)[nH]c2c(F)cc(F)cc12` [Compound 123]: the IC50 at G1 APOL1 and at APOL1 G1 Protein was above 1000 nM each time.

Turning to `NC(=O)CCc1c(-c2ccc(F)cc2)[nH]c2ccc(F)cc12` [Compound 68], the IC50 on G1 APOL1 and on APOL1 G1 Protein was above 1000 nM throughout.

As to `O=C(CCc1c(-c2ccc(F)cc2)[nH]c2c(F)cc(F)cc12)Nc1cccc(=O)[nH]1` [Compound 170], the IC50 at G1 APOL1 and at APOL1 G1 Protein was above 1000 nM in each case.

Regarding `Cc1nc(NC(=O)CCc2c(-c3ccc(F)cc3)[nH]c3c(F)cc(F)cc23)no1` [Compound 92, 3-[5,7-difluoro-2-(4-fluorophenyl)-1H-indol-3-yl]-N-(5-methyl-1,2,4-oxadiazol-3-yl)propanamide], the IC50 on G1 APOL1 and on APOL1 G1 Protein was above 1000 nM throughout.

Turning to `O=C(CCc1c(-c2ccc(F)cc2)[nH]c2ccc(F)cc12)N[C@H](CO)C(F)(F)F` [Compound 50], the IC50 on G1 APOL1 and on APOL1 G1 Protein was above 1000 nM in each case.

On to `NCC1CCCCN1C(=O)CCc1c(-c2ccc(F)cc2)[nH]c2ccc(F)cc12` (stereo not shown) [Compound 53], for which the IC50 on G1 APOL1 and on APOL1 G1 Protein was above 1000 nM each time.

As to `O=C(CCc1c(-c2ccc(F)cc2)[nH]c2c(F)cc(Br)cc12)N[C@H](CO)C(F)(F)F` [Compound 228], the IC50 on G1 APOL1 and at APOL1 G1 Protein was above 1000 nM throughout.

As for `CCC(C)(O)CNC(=O)CCc1c(-c2ccc(F)cc2)[nH]c2ccc(F)cc12` (stereo not shown) [Compound 74], the IC50 on G1 APOL1 and on APOL1 G1 Protein was above 1000 nM throughout.

Regarding `CC(C)C[C@H](CO)NC(=O)CCc1c(-c2ccc(F)cc2)[nH]c2c(F)cc(F)cc12` [Compound 192], the 50% inhibitory concentration (IC50) at G1 APOL1 and at APOL1 G1 Protein was above 1000 nM in each case.

In the case of `O=C(CCc1c(-c2ccc(F)cc2)[nH]c2c(F)cc(F)cc12)NCc1cn(CC(F)(F)F)cn1` [Compound 168], the IC50 on G1 APOL1 and at APOL1 G1 Protein was above 1000 nM in each case.
